Assay results from ChEMBL document CHEMBL1123004, “Synthesis and antidepressant profiles of phenyl-substituted 2-amino- and 2-[(alkoxycarbonyl)amino]-1,4,5,6-tetrahydropyrimidines” (J Med Chem, 1985).
Active and inactive are the calls of the source. The calls are words filed in the database; no cut-off is given here.

Assays:
Mus musculus [1] = species: Mus musculus; experiment: Antagonism of reserpine-induced hypothermia in mice; format: functional
Rattus norvegicus [2] = species: Rattus norvegicus; experiment: Inhibition of uptake of 5-HT in rat brain slices; format: functional
Rattus norvegicus [3] = species: Rattus norvegicus; experiment: Inhibition of uptake of nor epinephrine in rat brain slices; format: functional
Mus musculus [4] = experiment: In vivo inhibition of uptake of nor epinephrine in mouse heart; value ranges from 3.1-14.6; format: functional
Rattus norvegicus [5] = species: Rattus norvegicus; experiment: Inhibition of uptake of Dopamine in rat brain slices; format: functional
[6] = Lethal dose against mice after peroral administration; format: toxicity, organism-based; conditions: mouse, in vivo, po
Mus musculus [7] = species: Mus musculus; experiment: Antagonism of reserpine-induced hypothermia in mice; I=inactive at 10 mg/ Kg; format: functional, organism-based
Mus musculus [8] = species: Mus musculus; experiment: Antagonism of reserpine-induced hypothermia in mice; Short acting; format: functional
Mus musculus [9] = species: Mus musculus; experiment: Antagonism of reserpine-induced hypothermia in mice; value given as 0.15-0.6; format: functional
Mus musculus [10] = species: Mus musculus; experiment: animal or person
Mus musculus [11] = experiment: Antagonism of reserpine-induced hypothermia in mice; I=Inactive at 10 mg/kg; format: functional, organism-based; design: dose 10 mg/kg
Mus musculus [12] = experiment: In vivo inhibition of uptake of nor epinephrine in mouse heart; format: functional
Mus musculus [13] = experiment: In vivo inhibition of uptake of nor epinephrine in mouse heart; value ranges from 0.01-0.15; format: functional
Mus musculus [14] = species: Mus musculus; experiment: Antagonism of reserpine-induced hypothermia in mice value given as 0.01-0.15; format: functional
[15] = Lethal dose against mice after intraperitoneal administration; range = 31-53; format: toxicity, organism-based; conditions: mouse, in vivo, ip
[16] = Lethal dose against mice after peroral administration; RANGE = 50-122; format: toxicity, organism-based; conditions: mouse, in vivo, po
[17] = Lethal dose against mice after peroral administration; range = 111-182; format: toxicity, organism-based; conditions: mouse, in vivo, po
[18] = Lethal dose against mice after intraperitoneal administration; range = 25-28; format: toxicity, organism-based; conditions: mouse, in vivo, ip
Mus musculus [19] = experiment: In vivo inhibition of uptake of nor epinephrine in mouse heart; value ranges from 0.01-0.14; format: functional

`CN(C)CCCN1c2ccccc2CCc2ccccc21` [IMIPRAMINE] showed a Min oral dose (Mus musculus [1]) of 0.15 mg/kg, an IC50 (Rattus norvegicus [2]) of 16 µM and an IC50 (Rattus norvegicus [3]) of 4.6 µM. It also gave an ED50 (Mus musculus [4]) of 6.7 mg/kg and an IC50 (Rattus norvegicus [5]) of 12 µM.

In the case of `CCOC(=O)NC1=NCC(c2ccccc2)CN1` (stereo unspecified), the Min oral dose (Mus musculus [1]) is reported as 0.04 mg/kg and the LD50 [6] is reported as > 1000 mg/kg.

With `COC(=O)NC1=NCC(c2ccc(F)cc2)CN1` (stereo unspecified) the Min oral dose (Mus musculus [1]) was 0.04 mg/kg.

`COC(=O)NC1=NCC(c2ccc(C(C)C)cc2)CN1` (stereo unspecified) gave a Min oral dose (Mus musculus [1]) of 1 mg/kg.

With `CCCOC(=O)NC1=NC(c2ccccc2)CCN1` (stereo unspecified) the Min oral dose (Mus musculus [7]) was “inactive”.

Work on `CN1CC(c2ccccc2)CN(C)C1=N` (stereo unspecified) yielded a Min oral dose (Mus musculus [1]) of 10 mg/kg.

In the case of `COC(=O)NC1=NC(c2ccc(OC)cc2)CCN1` (stereo unspecified), the Min oral dose (Mus musculus [1]) is reported as 10 mg/kg.

Work on `CNC1=NCC(c2ccccc2)CN1` (stereo unspecified) yielded a Min oral dose (Mus musculus [1]) of 1 mg/kg.

`COC(=O)NC1=NC(c2ccccc2)CCN1` (stereo unspecified) gave a Min oral dose (Mus musculus [8]) of 2.5 mg/kg.

In the case of `NC1=NC(c2ccccc2)CCN1` (stereo unspecified), the Min oral dose (Mus musculus [1]) is reported as 10 mg/kg.

Work on `CNC1=NCC(c2ccccc2)CN1C` (stereo unspecified) yielded a Min oral dose (Mus musculus [1]) of 10 mg/kg.

In the case of `COC(=O)NC1=NCC(c2c(Cl)cccc2Cl)CN1` (stereo unspecified), the Min oral dose (Mus musculus [9]) is reported as 0.6 mg/kg.

In the case of `COC(=O)NC1=NCC(c2cccc(Br)c2)CN1` (stereo unspecified), the Min oral dose (Mus musculus [1]) is reported as 1 mg/kg.

Work on `CNCCCN1c2ccccc2CCc2ccccc21` [DESIPRAMINE] yielded an IC50 (Rattus norvegicus [2]) of 12 µM, an ED50 (Mus musculus [10]) of 1.4 mg/kg and an IC50 (Rattus norvegicus [5]) of 12 µM.

`COC(=O)NC1=NCC(c2ccc(Cl)cc2Cl)CN1` (stereo unspecified) gave a Min oral dose (Mus musculus [1]) of 10 mg/kg.

With `COC(=O)NC1=NCC(c2ccccc2)CN1C` (stereo unspecified) the Min oral dose (Mus musculus [9]) was 0.15 mg/kg.

With `COC(=O)NC1=NC(c2ccc(C)cc2)CCN1` (stereo unspecified) the Min oral dose (Mus musculus [11]) was “inactive”.

Work on `CN(C)CCC=C1c2ccccc2CCc2ccccc21` [AMITRIPTYLINE] yielded a Min oral dose (Mus musculus [1]) of 0.15 mg/kg, an IC50 (Rattus norvegicus [2]) of 12 µM and an IC50 (Rattus norvegicus [3]) of 2.5 µM. For the same compound, the ED50 (Mus musculus [12]) was 4.4 mg/kg and the IC50 (Rattus norvegicus [5]) was 12 µM.

For `NC1=NCC(c2ccccc2)CN1` (stereo unspecified), the ED50 (Mus musculus [13]) was 0.038 mg/kg, the IC50 (Rattus norvegicus [2]) was 1.6 µM and the IC50 (Rattus norvegicus [3]) was 0.01 µM. For the same compound, the Min oral dose (Mus musculus [14]) was 0.15 mg/kg, the LD50 [15] was 42 mg/kg and the LD50 [16] was 78 mg/kg. It also gave an IC50 (Rattus norvegicus [5]) of 0.03 µM.

Compound `COC(=O)NC1=NC(c2ccc(F)cc2)CCN1` (stereo unspecified) has a Min oral dose (Mus musculus [1]) of 1 mg/kg.

`COC(=O)NC1=NC(c2ccccc2)CCN1C` (stereo unspecified) gave a Min oral dose (Mus musculus [1]) of 10 mg/kg.

Compound `COC(=O)NC1=NCC(c2ccccc2)CN1` (stereo unspecified) has a Min oral dose (Mus musculus [1]) of 0.0006 mg/kg, an LD50 [17] of 142 mg/kg and an IC50 (Rattus norvegicus [2]) of 160 µM. It also gave an LD50 [18] of 27 mg/kg, an ED50 (Mus musculus [19]) of 0.038 mg/kg and an IC50 (Rattus norvegicus [3]) of 4.9 µM. The IC50 (Rattus norvegicus [5]) was 24 µM.

For `CC(C)OC(=O)NC1=NCC(c2ccccc2)CN1` (stereo unspecified), the Min oral dose (Mus musculus [1]) was 0.04 mg/kg and the LD50 [6] was > 1000 mg/kg.

`COC(=O)NC1=NC(c2ccccc2C(F)(F)F)CCN1` (stereo unspecified) showed a Min oral dose (Mus musculus [1]) of 10 mg/kg.

Compound `COC(=O)N=C1N(C)CC(c2ccccc2)CN1C` (stereo unspecified) has a Min oral dose (Mus musculus [1]) of 10 mg/kg.

With `COC(=O)NC1=NCC(c2ccccc2Cl)CN1` (stereo unspecified) the Min oral dose (Mus musculus [1]) was 10 mg/kg.

Compound `NC1=NCC(c2cccc(Br)c2)CN1` (stereo unspecified) has a Min oral dose (Mus musculus [1]) of 10 mg/kg.
